The record followed here is patent US11564927B2, “Therapeutic compositions, combinations, and methods of use” (Verastem, Inc., priority 2015, dated 2023).

Data set [1] has as its system Primary human CD8+ T-cells. As to the kind of experiment: CD8+ T-cell proliferation, BrdU incorporation. The format is cell-based. Particulars: 72 hours, anti-CD3/anti-CD28 coated beads, BrdU incorporation (FIG. 1). On the procedure:
Primary human CD8+ T-cells isolated from healthy donor PBMCs were incubated in the presence of anti-CD^3/anti-CD28 coated beads with increasing concentrations of VS-4718 or VS-6063 for 72-hours and assayed for BrdU incorporation as a measure of new DNA synthesis.
CD8+ T cells were isolated from fresh, healthy human PBMCs by negative immunomagnetic bead separation. Purified CD8+ T cells were plated on CD3-coated plates in the presence or absence of VS-4718, VS-6063, or GSK2256098 for 72 hours. Assay wells were pulsed with BrdU for the last 3-4 hours of culture and subjected to a BrdU-incorporation assay for the determination of actively proliferating cells. Data shown in FIG. 5 are presented as fold-change vs. DMSO control wells.
(In general: Dividing cells build labelled thymidine or BrdU into new DNA.)

The subject of data set [2] is syngeneic MC38 colorectal tumors. The data set can be described thus: Survival of mice bearing MC38 colorectal tumors. The class given is in vivo, mouse. On the procedure:
Based on the inhibition of tumor-associated macrophages and enhancement of CD8+ T-cells, potentiation of FAK/PYK2 inhibitors on the anti-tumor efficacy of an anti-PD-1 monoclonal antibody in syngeneic mouse tumor models was investigated. Mice bearing established syngeneic MC38 colorectal tumors were treated with VS-4718 for 5 days before combination treatment with anti-PD1 antibody along with continued VS-4718 administration. Combination of VS-4718 with anti-PD1 extended the median overall survival to 42 days relative to 21, 25 and 28 day median overall survival with vehicle control, single agent anti-PD-1 and single agent VS-4718, respectively (FIG. 2).

On to `CNC(=O)c1ccccc1Nc1cc(Nc2ccc(N3CCOCC3)cc2OC)ncc1C(F)(F)F` [VS-4718], for which the “proliferation of CD8+ cytotoxic T-cells” value in data set [1] is listed as “stimulate proliferation”. Also, the mice still surviving entry in data set [2] (day 56, MC38 model) was “no surviving mice”. Also, in data set [2] (mice with established MC38 tumors, VS-4718 for 5 days before combination with anti-PD1 (FIG. 2)), the median overall survival amounted to 28 days.

In the case of `Cc1nc(Nc2ncc(C(=O)Nc3c(C)cccc3Cl)s2)cc(N2CCN(CCO)CC2)n1` [dasatinib], the “proliferation of CD8+ cytotoxic T-cells” value in data set [1] is listed as “potently impair the proliferation”.

Regarding `CC(=O)Nc1cccc(-n2c(=O)n(C3CC3)c(=O)c3c(Nc4ccc(I)cc4F)n(C)c(=O)c(C)c32)c1` [trametinib], the “proliferation of CD8+ cytotoxic T-cells” value in data set [1] is listed as “potently impair the proliferation”.
